Entries after “also recorded” stand apart in the source; their conditions may differ.
Columns and labels:
osteosarcoma = conditions: at 18 weeks of treatment, PMID: 33580363; cited from earlier work
143B (human OS) cells = experiment: Proliferation assay (WST-1), OS cells; assay type: cell-based; conditions: 100 μM CADD522, 72 h, WST-1, relative to control
Procedure: (§1) Cell lines. 143B (human OS) and TC71 (human ES) cells were obtained from ATCC. Cells were authenticated by STR profiling and were cultured in DMEM/F-12 (Thermo Fisher Scientific) or IMDM (Thermo Fisher Scientific) containing 1% (v/v) insulin transferrin selenium, 10% (v/v) FBS and 1% (v/v) penicillin/streptomycin. Medium was refreshed every other day and cells were maintained at 37° C. in 5% CO2. For the animal experiments 143B and TC71 cells were modified by transfecting with the GFP-luciferase tagged LVP02 lentivirus (AMSBIO). Adding the luciferase tag had no effect on cell phenotype.
(§2) Proliferation assays. 1×10^3 cells in 100 μL of medium were seeded per well into 96-well plates. PBS was added to outer wells to prevent evaporation. All plates were incubated for 24 h at 37° C. in 5% CO2. 100 nM, 1 μM, 10 μM and 100 μM CADD522 were added from a stock concentration of 10 mM in DMSO and incubated for 72 h before measuring cell viability/proliferation using the WST-1 assay kit (Abcam) following manufacturer's instructions. Data was presented as relative to the control (appearing as −11 on x-axis), which is set to 100% viability. Experiments were performed in quadruplicates in three independent experiments.
(§3) Statistics. […] Data was tested for normality by D'Agostino Pearson Omnibus test and analysed in GraphPad Prism v9 with p=<0.05 regarded as significant. […]

TC71+GFP-Luc (ES) cells = experiment: PBC xenograft mouse model, ES; assay type: in vivo, BALB/c nude mice
Procedure: (§4) Mice. The University of Sheffield Animal Welfare and Ethics Committee approved the animal experiments. Experiments were performed under licence in accordance with the UK Home Office guidelines and under the Animals (Scientific Procedures) Act 1986. Six- to seven-week-old female BALB/c nude mice (Charles River Laboratories) were acclimatised for one week prior to in vivo study. Mice were housed with a 12 h light-dark cycle at 22° C. and had free access to 2018 Teklad global 18% protein rodent diet containing 1.01% calcium (Harlan) and water. Mice were anesthetised by isoflurane inhalation before implantation with 2.5×10^5 143B+GFP-Luc (OS) cells or 5×10^5 TC71+GFP-Luc (ES) cells in 20 μl PBS onto the tibial surface. Mice were matched by weight and initial IVIS signal and then randomly divided into groups (n=8 mice/group). CADD522 treatment commenced the day after tumours became visible. Mice received either vehicle control (PBS and DMSO) or CADD522 (25 mg/kg) by IP injection five times per week. Tumours were measured by callipers throughout the study twice per week blinded. Two perpendicular measurements were taken and volume calculated by the formula V=0.523×L×(S)^2 where L and S refer to the largest and smallest measurement. Mice were treated until the palpable tumour reached the permissible 12 mm diameter limit. At the end of the procedure ex vivo imaging of mouse internal organs was performed to detect metastasis. Prior to killing, mice were injected subcutaneously with 150 mg/kg XenoLight D-Luciferin substrate (Perkin Elmer) that was left to disperse for a minimum of 5 m. Dissected organs were then imaged using the IVIS Lumina II. […]
Micro-CT. […] The region of interest (ROI) for the total bone volume was selected to include both the tibia and fibula and was determined at the top of the bone as soon as the tibia enters the image to the lower point where the tibia and fibula meet. […]
as §3

[1] = Observed toxicity in treated PBC model mice; assay type: in vivo; conditions: 25 mg/kg over the study period
Procedure: as §4, with “limit.” for “limit. At the end of the procedure ex vivo imaging of mouse internal organs was performed to detect metastasis. Prior to killing, mice were injected subcutaneously with 150 mg/kg XenoLight D-Luciferin substrate (Perkin Elmer) that was left to disperse for a minimum of 5 m. Dissected organs were then imaged using the IVIS Lumina II.”

TC71 (human ES) cells = experiment: Proliferation assay (WST-1), ES cells; assay type: cell-based; conditions: 100 μM CADD522, 72 h, WST-1, relative to control
Procedure: as §1, §2, §3

143B+GFP-Luc (OS) cells = experiment: PBC xenograft mouse model, OS; assay type: in vivo, BALB/c nude mice
Procedure: Mice. The University of Sheffield Animal Welfare and Ethics Committee approved the animal experiments. Experiments were performed under licence in accordance with the UK Home Office guidelines and under the Animals (Scientific Procedures) Act 1986. Six- to seven-week-old female BALB/c nude mice (Charles River Laboratories) were acclimatised for one week prior to in vivo study. Mice were housed with a 12 h light-dark cycle at 22° C. and had free access to 2018 Teklad global 18% protein rodent diet containing 1.01% calcium (Harlan) and water. Mice were anesthetised by isoflurane inhalation before implantation with 2.5×10^5 143B+GFP-Luc (OS) cells or 5×10^5 TC71+GFP-Luc (ES) cells in 20 μl PBS onto the tibial surface. Mice were matched by weight and initial IVIS signal and then randomly divided into groups (n=8 mice/group). CADD522 treatment commenced the day after tumours became visible. Mice received either vehicle control (PBS and DMSO) or CADD522 (25 mg/kg) by IP injection five times per week. Tumours were measured by callipers throughout the study twice per week blinded. Two perpendicular measurements were taken and volume calculated by the formula V=0.523×L×(S)^2 where L and S refer to the largest and smallest measurement. Mice were treated until the palpable tumour reached the permissible 12 mm diameter limit. At the end of the procedure ex vivo imaging of mouse internal organs was performed to detect metastasis. Prior to killing, mice were injected subcutaneously with 150 mg/kg XenoLight D-Luciferin substrate (Perkin Elmer) that was left to disperse for a minimum of 5 m. Dissected organs were then imaged using the IVIS Lumina II. Mice legs and lungs were dissected and fixed in 10% formalin for further analysis.
Micro-CT. Fixed tibiae were scanned using a SkyScan 1172 desktop micro-CT machine (Bruker) at 8 um resolution with the X-ray source operating at 50 kV, 200 uA and using a 0.5 mm aluminium filter. Images were captured every 0.7°. Scanned images were reconstructed using Skyscan NRecon software v1.6.9 (Bruker). The region of interest (ROI) for the total bone volume was selected to include both the tibia and fibula and was determined at the top of the bone as soon as the tibia enters the image to the lower point where the tibia and fibula meet.
Histology. Bones were fixed in neutral buffered formalin for 48 h after which they were transferred to 70% ethanol. Bones were then decalcified in 10% EDTA, embedded in paraffin and 5 μm sections produced. Sections were de-waxed in xylene, rehydrated through graded alcohols and stained in haematoxylin (VWR) and eosin. The sections were dehydrated through graded alcohols and coverslips were mounted in DPX and imaged using Olympus BX51 microscope (Olympus Life Sciences) and Pannoramic 250 Flash III slide scanner (3[…]).
Statistics. For statistical tests p=<0.05 was considered as statistically significant. Proliferation data is reported for each experimental repeat (n=3). Data was tested for normality by D'Agostino Pearson Omnibus test and analysed in GraphPad Prism v9 with p=<0.05 regarded as significant. A one-way ANOVA was used to identify any differences in proliferation across the concentration range tested compared to the untreated control. A post-hoc Dunnett's multiple comparison was then used to determine which concentration impacted proliferation compared to the untreated control. […]

[2] = tested on: osteosarcoma and Ewing sarcoma; conditions: PMID: 20068084; cited from earlier work
[3] = 25 mg/kg IP, compared to controls

pembrolizumab
clinical benefit (osteosarcoma): no patients had clinical benefit

O=C(O)C1C2C=CC(C2)C1C(=O)Nc1ccc(Cl)c(Cl)c1 (stereo not shown) [CADD522, 3-(N-(3,4-dichlorophenyl)carbamoyl)-5-norbornene-2-carboxylic acid]
OS cell viability/proliferation (143B (human OS) cells): cytotoxic effect; also recorded: significantly reduced cell proliferation | overall survival, ES mice (TC71+GFP-Luc (ES) cells; 25 mg/kg IP five times per week vs control, p=0.043): Significantly increased overall survival | ES tumour volume over time (TC71+GFP-Luc (ES) cells; 25 mg/kg IP five times per week vs vehicle control, p=0.0003): significantly reduced tumour volume | histology (H&E) of ES tumours at endpoint (TC71+GFP-Luc (ES) cells; [3]): generally more vascularised | observed toxicity in the animals [1]: no observed toxicity | ES cell viability/proliferation (TC71 (human ES) cells): cytotoxic; also recorded: showed cell proliferation differences | metastasis-free survival, OS mice (143B+GFP-Luc (OS) cells; 25 mg/kg IP five times per week vs control, p=0.0091): significantly increased metastasis-free survival | overall survival, OS mice (143B+GFP-Luc (OS) cells; 25 mg/kg IP five times per week vs control, p=0.093): Half of OS mice receiving CADD522 treatment survived longer than the control group | OS tumour volume over time (143B+GFP-Luc (OS) cells; 25 mg/kg IP five times per week vs vehicle control, p=0.0072): significantly reduced tumour volume | histology (H&E) of OS tumours at endpoint (143B+GFP-Luc (OS) cells; [3]): more densely packed, generally more vascularised and more organised (arranged in chords) | bone volume difference, tumour bearing leg vs contralateral (CL) leg (micro-CT) (143B+GFP-Luc (OS) cells; OS mice, 25 mg/kg IP, in control mice difference significant (p=0.02)): no longer statistically significant

C/C(=C\c1csc(C)n1)[C@@H]1C[C@@H]2O[C@]2(C)CCC[C@H](C)[C@H](O)[C@@H](C)C(=O)C(C)(C)[C@@H](O)CC(=O)N1 [ixabepilone]
clinical response [2]: no partial or complete responses were observed
